Assay [1] has as its target T1, Integrin alpha-V/beta-3 (Homo sapiens, UniProt P05106+P06756).
Assay [2] deals with T1, Integrin alpha-V/beta-3. The assay can be described thus: Inhibition of integrin alpha-V-beta-3-mediated adhesion of human cells M21 cells. It is filed as cell-based.
Assay [3] can be described thus: Selectivity for cathepsin K over cathepsin L.
Assay [4] is described as follows: Selectivity for cathepsin K over cathepsin S.
The next assay deals with Cathepsin K (Homo sapiens, UniProt P43235).
The nature of assay [5]: Selectivity for integrin alphaVbeta3 over integrin alphaVbeta5.
Assay [6] concerns MC3T3-E1. The experiment in a line: Induction of osteogenesis in mouse MC3T3-E1 cells assessed as increase in bone mineralization at 0.03 uM. It is filed as functional.
In assay [7] the test system is MC3T3-E1. The experiment in a line: Induction of osteogenesis in mouse MC3T3-E1 cells assessed as increase in osteoblast differentiation-associated ALP level at 0.03 uM. In kind it is functional.
Assay [8] deals with MC3T3-E1. The assay can be described thus: Induction of osteogenesis in mouse MC3T3-E1 cells assessed as increase in osteoblast differentiation-associated collagen synthesis at 0.03 uM. In kind it is functional.
Assay [9] deals with MC3T3-E1. The experiment in a line: Induction of osteogenesis in mouse MC3T3-E1 cells assessed as increase in bone mineralization at 0.3 uM. In kind it is functional.
The subject of assay [10] is MC3T3-E1. The experiment in a line: Induction of osteogenesis in mouse MC3T3-E1 cells assessed as increase in osteoblast differentiation-associated ALP level at 0.3 uM. In kind it is functional.
In assay [11] the test system is MC3T3-E1. The assay can be described thus: Induction of osteogenesis in mouse MC3T3-E1 cells assessed as increase in osteoblast differentiation-associated collagen synthesis at 0.3 uM. In kind it is functional.
The nature of assay [12]: Selectivity for cathepsin K over cathepsin B.
A short description of assay [13]: Induction of osteogenesis in rat UMR106 cells assessed as stimulation of cell proliferation at 10 nM. In kind it is functional.
Another assay addresses Cannabinoid receptor 1 (Homo sapiens, UniProt P21554).
For assay [14], the system named is MC3T3-E1. The experiment in a line: Induction of osteogenesis in mouse MC3T3-E1 cells assessed as increase in osteoblast differentiation-associated collagen synthesis at 0.01 uM. In kind it is functional.
Assay [15] deals with MC3T3-E1. The experiment in a line: Induction of osteogenesis in mouse MC3T3-E1 cells assessed as increase in bone mineralization at 1 uM. In kind it is functional.
The subject of assay [16] is Homo sapiens. The assay can be described thus: Antiosteoporotic activity in men with osteoporosis assessed as decrease in bone resorption-associated urinary CTX-1 level at 250 mg/kg after 10 to 14 days. In kind it is functional. The note with it: Urine.
Assay [17] relates to Homo sapiens. The assay can be described thus: Antiosteoporotic activity in men with osteoporosis assessed as decrease in bone resorption-associated serum CTX-1 level at 250 mg/kg after 10 to 14 days. In kind it is functional, organism-based. The arrangement: dose 250 mg/kg. The note with it: dose 250 mg/kg.
For another assay, the system named is Rattus norvegicus. The experiment in a line: Short duration (5-10 min) elevation in PTH as Cmax in rats after 10 umol/kg intravenous dose. It is filed as functional, organism-based.
For assay [18], the system named is Osteoclast. The assay can be described thus: Inhibition of osteoclastogenesis in RANKL-stimulated mouse osteoclast at 10 uM. It is filed as functional.
In assay [19] the test system is Osteoclast. The experiment in a line: Inhibition of osteoclastogenesis in RANKL-stimulated mouse osteoclast at 20 uM. It is filed as functional.

Some results are limits rather than exact numbers.

T1 sequence (P05106 27-788 limits assumed): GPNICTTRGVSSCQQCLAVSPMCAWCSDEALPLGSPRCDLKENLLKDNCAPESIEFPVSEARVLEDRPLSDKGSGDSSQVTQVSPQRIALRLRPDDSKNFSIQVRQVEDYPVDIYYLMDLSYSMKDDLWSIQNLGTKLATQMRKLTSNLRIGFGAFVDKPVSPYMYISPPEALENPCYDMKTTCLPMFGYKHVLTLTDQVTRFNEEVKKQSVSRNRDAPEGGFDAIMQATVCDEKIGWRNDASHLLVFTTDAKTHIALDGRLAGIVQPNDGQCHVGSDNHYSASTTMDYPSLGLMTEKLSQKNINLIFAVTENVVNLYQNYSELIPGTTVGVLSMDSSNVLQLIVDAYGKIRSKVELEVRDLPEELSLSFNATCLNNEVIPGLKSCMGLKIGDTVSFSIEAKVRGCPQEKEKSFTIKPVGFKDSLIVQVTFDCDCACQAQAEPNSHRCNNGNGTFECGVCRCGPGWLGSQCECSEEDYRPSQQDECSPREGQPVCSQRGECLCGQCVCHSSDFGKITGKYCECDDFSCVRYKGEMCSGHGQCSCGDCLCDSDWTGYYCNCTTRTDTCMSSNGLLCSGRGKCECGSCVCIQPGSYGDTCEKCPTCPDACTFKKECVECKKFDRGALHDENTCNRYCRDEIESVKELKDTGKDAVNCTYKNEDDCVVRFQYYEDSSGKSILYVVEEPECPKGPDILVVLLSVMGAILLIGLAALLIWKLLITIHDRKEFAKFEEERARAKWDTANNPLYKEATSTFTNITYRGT
T1 sequence (P06756 31-889 limits assumed): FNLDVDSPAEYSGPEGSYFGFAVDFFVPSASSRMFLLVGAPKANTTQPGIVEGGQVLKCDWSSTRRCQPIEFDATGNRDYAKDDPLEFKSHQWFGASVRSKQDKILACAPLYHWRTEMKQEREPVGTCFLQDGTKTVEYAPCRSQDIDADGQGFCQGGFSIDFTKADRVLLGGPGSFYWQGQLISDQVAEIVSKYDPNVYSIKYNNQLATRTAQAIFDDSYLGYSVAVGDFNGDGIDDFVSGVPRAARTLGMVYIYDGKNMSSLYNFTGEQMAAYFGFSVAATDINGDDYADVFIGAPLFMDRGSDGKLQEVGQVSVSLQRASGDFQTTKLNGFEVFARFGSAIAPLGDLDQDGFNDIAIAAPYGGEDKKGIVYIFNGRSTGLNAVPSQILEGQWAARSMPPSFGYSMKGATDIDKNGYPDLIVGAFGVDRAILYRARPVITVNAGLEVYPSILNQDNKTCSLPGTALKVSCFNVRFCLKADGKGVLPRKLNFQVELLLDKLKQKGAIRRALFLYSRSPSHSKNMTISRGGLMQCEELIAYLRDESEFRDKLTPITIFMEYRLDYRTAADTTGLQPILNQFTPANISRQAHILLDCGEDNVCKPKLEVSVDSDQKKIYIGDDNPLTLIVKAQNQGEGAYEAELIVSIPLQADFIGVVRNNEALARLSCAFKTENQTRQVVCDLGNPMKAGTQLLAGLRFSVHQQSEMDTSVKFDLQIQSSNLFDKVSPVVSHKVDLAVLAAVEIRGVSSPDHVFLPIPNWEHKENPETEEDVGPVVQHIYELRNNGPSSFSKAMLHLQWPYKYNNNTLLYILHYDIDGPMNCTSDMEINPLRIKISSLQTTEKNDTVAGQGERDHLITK
T1 sequence (P06756 891-1048 limits assumed): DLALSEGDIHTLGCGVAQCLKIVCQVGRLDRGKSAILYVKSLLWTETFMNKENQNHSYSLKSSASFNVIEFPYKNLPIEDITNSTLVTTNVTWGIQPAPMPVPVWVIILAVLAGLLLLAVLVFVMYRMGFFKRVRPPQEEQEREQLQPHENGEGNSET
Cathepsin K, sequence (P43235 whole entry): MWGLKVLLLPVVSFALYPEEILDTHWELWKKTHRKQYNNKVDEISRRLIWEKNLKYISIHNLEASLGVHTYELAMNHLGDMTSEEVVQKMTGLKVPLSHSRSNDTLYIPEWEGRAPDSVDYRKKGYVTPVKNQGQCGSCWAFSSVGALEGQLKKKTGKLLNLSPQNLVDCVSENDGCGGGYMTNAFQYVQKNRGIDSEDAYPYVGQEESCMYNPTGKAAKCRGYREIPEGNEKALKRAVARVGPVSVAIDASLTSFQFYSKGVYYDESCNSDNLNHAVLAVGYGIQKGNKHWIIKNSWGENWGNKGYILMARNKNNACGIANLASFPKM
Cannabinoid receptor 1, sequence (P21554 whole entry): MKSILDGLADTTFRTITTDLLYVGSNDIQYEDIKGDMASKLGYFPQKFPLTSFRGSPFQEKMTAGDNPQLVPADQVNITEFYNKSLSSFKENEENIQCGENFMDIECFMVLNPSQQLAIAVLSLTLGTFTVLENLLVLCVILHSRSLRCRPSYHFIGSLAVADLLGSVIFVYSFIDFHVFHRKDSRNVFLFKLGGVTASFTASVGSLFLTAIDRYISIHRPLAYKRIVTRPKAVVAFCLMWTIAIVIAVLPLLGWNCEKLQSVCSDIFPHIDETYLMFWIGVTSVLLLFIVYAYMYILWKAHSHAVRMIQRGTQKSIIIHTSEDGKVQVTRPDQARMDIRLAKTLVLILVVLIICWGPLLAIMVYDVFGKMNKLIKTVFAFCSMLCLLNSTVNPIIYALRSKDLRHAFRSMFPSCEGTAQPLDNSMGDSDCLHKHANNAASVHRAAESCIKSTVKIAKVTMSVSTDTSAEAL

`COc1cc(Cl)c(/C=C2\S/C(=N/c3cccc(C(=O)O)c3)N(C)C2=O)cc1OC`: at Integrin alpha-V/beta-3 [1], half-maximal inhibition (IC50) required 30 nM.

As to `N=C(N)N=C(N)Nc1cc(Cl)cc(Cl)c1`, inhibition against Integrin alpha-V/beta-3 [2] was half-maximal at 33.5 nM (IC50). In other words, the double-digit nanomolar range.

As to `CC(C)(C)Cn1c(CN2C(=O)CC3(CCNCC3)C2=O)cc2cnc(C#N)nc21`, the Selectivity ratio in [3] is above 1000; in [4] it was above 10000. Further, at Cathepsin K, the IC50 was below 1 nM.

`CC(C)(C)OC(=O)[C@@H]1C[C@H](CC(=O)O)[C@H]2CC[C@H](NC(=O)[C@@H](N)CCCNC(=N)N)C(=O)N21`: the IC50 against Integrin alpha-V/beta-3 [1] came to 304 nM. Further, the Selectivity ratio in assay [5] was 3.5.

In the case of `COc1cc([C@H]2OC[C@H](Cc3cc(OC)c(O[C@@H]4O[C@H](CO)[C@@H](O)[C@H](O)[C@H]4O)c(OC)c3)[C@@H]2CO)cc(OC)c1O` [MANGLIESIDE E], the Activity in the assay on MC3T3-E1 [6] came to 109%; with MC3T3-E1 [7], 112%; in the assay on MC3T3-E1 [8], 118%.

As to `CO[C@@]1(C)CC/C=C(\C)CCC2=C(C)CO[C@H]2/C=C(\C)CC[C@@H]1O`, the figures for the Activity in the assay on MC3T3-E1 [9], with MC3T3-E1 [10] and in the assay with MC3T3-E1 [11] were 110.6%, 127.8% and 108.2%, respectively.

Regarding `CN1CCN(c2nc(-c3ccc(C(=O)NC4(C(=O)N[C@@H]5C(=O)N[C@@H]5Oc5ccccc5)CCCCC4)cc3)cs2)CC1`, the Selectivity ratio came to 500 in assay [3], 71 in [12] and 3540 in assay [4]. Also, the Ki on Cathepsin K was determined as 4.8 nM.

For the compound `O=c1c(O[C@@H]2O[C@H](CO)[C@@H](O)[C@H](O)[C@H]2O)c(-c2ccc(O)cc2)oc2cc(O[C@@H]3O[C@@H](CO)[C@H](O)[C@H]3O)cc(O)c12`, the Activity in assay [13] came to 35.9%.

For the compound `CCCCCCC(C)(C)c1cc(OC)c([C@H]2C=C(CO)[C@@H]3C[C@H]2C3(C)C)c(OC)c1`, at Cannabinoid receptor 1, the Ki was at least 10000 nM.

Turning to `COc1c(O)cc2c(O)c3c(O)c(O)c(O[C@@H]4O[C@@H](C)[C@H](O)[C@@H](O)[C@H]4O)cc3c(O)c2c1O`, the Activity in the assay with MC3T3-E1 [14] was found to be 111%; in the assay on MC3T3-E1 [15], 125%.

Take `CN1CCN(CCOc2cc(OC3CCOCC3)c3c(Nc4c(Cl)ccc5c4OCO5)ncnc3c2)CC1` [SARACATINIB]: the inhibition in vivo at 250 mg/kg in the assay with Homo sapiens [16] is 67%; with Homo sapiens [17], 88%.

Turning to `O=c1c2ccccc2nc(-c2ccccc2O)n1CCc1ccccc1`, in the assay with Rattus norvegicus, the Cmax PTH is 400 pg/mL.

On to `O=C(O[C@@H]1Cc2c(O)cc(O)cc2O[C@@H]1c1cc(O)c(O)c(O)c1)c1cc(O)c(O)c(O)c1` [EPIGALOCATECHIN GALLATE], for which the inhibition at 10 µM in the assay on Osteoclast [18] was 17%. The inhibition at 20 µM in the assay with Osteoclast [19] was 32%.

For orientation: IC50 means the midpoint of a concentration-inhibition curve. A higher IC50 goes with lower potency. Broadly, the Ki is the equilibrium dissociation constant of an inhibitor or competing ligand from its target. Lower therefore signals tighter binding. The inhibition in vivo is the percentage by which the read-out fell short of the control. A word on the inhibition: it is the relative decrease from the control value, in per cent. A high value points to strong suppression.

The record behind these values is ChEMBL document CHEMBL1155461, “Emerging targets in osteoporosis disease modification” (J Med Chem, 2010).
